Values joined by “and” are separate entries in the source; they are usually repeats but may differ in a detail not shown here. Identical values can stand only once. Results filed as inconclusive are left out. Numbered stars: 1 amine (or outer) side, 2 acyl side, 3 side chain; on linkers, the order of the positions; unused ones are H or OH. Bridge positions count the residues as written; N and C are the ends. Square brackets hold non-standard residues; d marks the D form. Peptide text beside a SMILES is read from it. I, II: the chains in the order shown. Actinocin(1to9) = Cc1c2oc3c(C)ccc(C(=O)[*:2])c3nc-2c(C(=O)[*:1])c(N)c1=O; NMeV = CN[CH](C(=O)O)C(C)C; Aze = O=C(O)[CH]1CCN1; Sar = CNCC(=O)O
Tested on: BDF1 mice, M5076 sarcoma s.c., survival/tumor T/C
Assay: NCI In Vivo Anticancer Drug Screen. Data for tumor model Sarcoma M5076 (subcutaneous) in B6D2F1 (BDF1) mice
Experimental: The antitumor activity of compounds was measured in mice bearing transplantable tumors. Survival or tumor size were measured and the results are expressed as the measurement made in the treated group (T) divided by the measurement made in the vehicle treated control group (C). The tumor model used in this assay is Sarcoma M5076 (subcutaneous) in B6D2F1 (BDF1) mice

[1] = endpoint: median survival time, dose: 50.0 mg/kg/injection, schedule: Q01DX009 (ip), vehicle: saline with Tween-80, higher = longer survival
[2] = endpoint: median survival time, dose: 100.0 mg/kg/injection, schedule: Q01DX009 (ip), vehicle: saline with Tween-80, higher = longer survival
[3] = endpoint: median survival time, dose: 200.0 mg/kg/injection, schedule: Q01DX009 (ip), vehicle: saline with Tween-80, higher = longer survival
[4] = endpoint: median tumor weight (est.), dose: 50.0 mg/kg/injection, schedule: Q01DX009 (ip), vehicle: saline with Tween-80, higher = larger tumour
[5] = endpoint: median tumor weight (est.), dose: 100.0 mg/kg/injection, schedule: Q01DX009 (ip), vehicle: saline with Tween-80, higher = larger tumour
[6] = endpoint: median tumor weight (est.), dose: 200.0 mg/kg/injection, schedule: Q01DX009 (ip), vehicle: saline with Tween-80, higher = larger tumour

## Nc1nc([Se])c2ncn(C3OC(CO)C(O)C3O)c2n1 (stereo unspecified)
endpoint: median survival time, dose: 4.0 mg/kg/injection, schedule: Q01DX009 (ip), vehicle: saline, higher = longer survival
  T/C: 108 % of control
endpoint: median survival time, dose: 8.0 mg/kg/injection, schedule: Q01DX009 (ip), vehicle: saline, higher = longer survival
  T/C: 118 % of control
endpoint: median survival time, dose: 8.0 mg/kg/injection, schedule: Q01DX009 (ip), vehicle: suspension in saline, higher = longer survival
  T/C: 118 % of control
endpoint: median survival time, dose: 16.0 mg/kg/injection, schedule: Q01DX009 (ip), vehicle: saline, higher = longer survival
  T/C: 119 % of control
endpoint: median survival time, dose: 16.0 mg/kg/injection, schedule: Q01DX009 (ip), vehicle: suspension in saline, higher = longer survival
  T/C: 119 % of control
endpoint: median tumor weight (est.), dose: 4.0 mg/kg/injection, schedule: Q01DX009 (ip), vehicle: saline, higher = larger tumour
  T/C: 64 % of control
endpoint: median tumor weight (est.), dose: 8.0 mg/kg/injection, schedule: Q01DX009 (ip), vehicle: saline, higher = larger tumour
  T/C: 33 % of control
endpoint: median tumor weight (est.), dose: 8.0 mg/kg/injection, schedule: Q01DX009 (ip), vehicle: suspension in saline, higher = larger tumour
  T/C: 24 % of control
endpoint: median tumor weight (est.), dose: 16.0 mg/kg/injection, schedule: Q01DX009 (ip), vehicle: saline, higher = larger tumour
  T/C: 8 % of control
endpoint: median tumor weight (est.), dose: 16.0 mg/kg/injection, schedule: Q01DX009 (ip), vehicle: suspension in saline, higher = larger tumour
  T/C: 6 % of control

## Nc1ncn(C2OC(CO)C(O)C2O)c(=O)n1 (stereo unspecified)
endpoint: median survival time, dose: 0.6 mg/kg/injection, schedule: Q04DX009 (ip), vehicle: saline, higher = longer survival
  T/C: 106 % of control
endpoint: median survival time, dose: 1.2 mg/kg/injection, schedule: Q04DX009 (ip), vehicle: saline, higher = longer survival
  T/C: 112 % of control
endpoint: median survival time, dose: 2.4 mg/kg/injection, schedule: Q04DX009 (ip), vehicle: saline, higher = longer survival
  T/C: 113 % of control
endpoint: median survival time, dose: 4.8 mg/kg/injection, schedule: Q04DX009 (ip), vehicle: saline, higher = longer survival
  T/C: 111 % of control

## Nc1ccn(C2OC3COC2C3O)c(=O)n1 (stereo unspecified)
endpoint: median survival time, dose: 50.0 mg/kg/injection, schedule: Q01DX009 (ip), vehicle: saline, higher = longer survival
  T/C: 89 % of control
endpoint: median survival time, dose: 100.0 mg/kg/injection, schedule: Q01DX009 (ip), vehicle: saline, higher = longer survival
  T/C: 110 % of control
endpoint: median survival time, dose: 200.0 mg/kg/injection, schedule: Q01DX009 (ip), vehicle: saline, higher = longer survival
  T/C: 102 % of control
endpoint: median tumor weight (est.), dose: 100.0 mg/kg/injection, schedule: Q01DX009 (ip), vehicle: saline, higher = larger tumour
  T/C: 65 % of control
endpoint: median tumor weight (est.), dose: 200.0 mg/kg/injection, schedule: Q01DX009 (ip), vehicle: saline, higher = larger tumour
  T/C: 92 % of control

## COc1ccc(/C=N/NC(=O)C(=O)Nc2ccc(Cl)c([N+](=O)[O-])c2)cc1OC
[1]
  T/C: 97 % of control
[2]
  T/C: 88 % of control
[3]
  T/C: 97 % of control
[4]
  T/C: 96 % of control
[5]
  T/C: 90 % of control
[6]
  T/C: 86 % of control

## CC1(C)OC(C)(C)c2c1nnc(-c1ccccc1[N+](=O)[O-])[n+]2[O-]
[1]
  T/C: 108 % of control
[2]
  T/C: 99 % of control
[3]
  T/C: 103 % of control
[4]
  T/C: 70 % of control
[5]
  T/C: 110 % of control
[6]
  T/C: 67 % of control

## O=C1/C(=C/c2cccc([N+](=O)[O-])c2)SC(=S)N1C1CC1
[1]
  T/C: 94 % of control
[2]
  T/C: 94 % of control
[3]
  T/C: 89 % of control
[4]
  T/C: 100 % of control
[5]
  T/C: 97 % of control

## CN(N=O)C(=O)N[C@@H](C=O)[C@@H](O)[C@H](O)[C@H](O)CO
endpoint: mean tumor weight, dose: 9.38 mg/kg/injection, schedule: Q02DX011 (ip), vehicle: other, higher = larger tumour
  T/C: 64 % of control
endpoint: mean tumor weight, dose: 18.75 mg/kg/injection, schedule: Q02DX011 (ip), vehicle: other, higher = larger tumour
  T/C: 37 % of control and 56 % of control
endpoint: mean tumor weight, dose: 37.5 mg/kg/injection, schedule: Q02DX011 (ip), vehicle: other, higher = larger tumour
  T/C: 11 % of control and 15 % of control
endpoint: mean tumor weight, dose: 75.0 mg/kg/injection, schedule: Q02DX011 (ip), vehicle: other, higher = larger tumour
  T/C: 1 % of control
endpoint: median tumor weight (est.), dose: 9.38 mg/kg/injection, schedule: Q02DX011 (ip), vehicle: other, higher = larger tumour
  T/C: 45 % of control
endpoint: median tumor weight (est.), dose: 18.75 mg/kg/injection, schedule: Q02DX011 (ip), vehicle: other, higher = larger tumour
  T/C: 39 % of control and 60 % of control
endpoint: median tumor weight (est.), dose: 37.5 mg/kg/injection, schedule: Q02DX011 (ip), vehicle: other, higher = larger tumour
  T/C: 10 % of control and 34 % of control

## CNNCc1ccc(C(=O)NC(C)C)cc1
endpoint: median survival time, dose: 44.0 mg/kg/injection, schedule: Q04DX006 (ip), vehicle: saline, higher = longer survival
  T/C: 118 % of control
endpoint: median survival time, dose: 88.0 mg/kg/injection, schedule: Q02DX033 (ip), vehicle: saline, higher = longer survival
  T/C: 214 % of control
endpoint: median survival time, dose: 88.0 mg/kg/injection, schedule: Q04DX006 (ip), vehicle: saline, higher = longer survival
  T/C: 151 % of control
endpoint: median survival time, dose: 176.0 mg/kg/injection, schedule: Q02DX033 (ip), vehicle: saline, higher = longer survival
  T/C: 92 % of control
endpoint: median survival time, dose: 176.0 mg/kg/injection, schedule: Q04DX006 (ip), vehicle: saline, higher = longer survival
  T/C: 216 % of control
endpoint: median survival time, dose: 352.0 mg/kg/injection, schedule: Q04DX006 (ip), vehicle: saline, higher = longer survival
  T/C: 179 % of control

## Cc1c2oc3c(C)ccc(C(=O)NC4C(=O)NC(C(C)C)C(=O)N5CCCC5C(=O)N(C)CC(=O)N(C)C(C(C)C)C(=O)OC4C)c3nc-2c(C(=O)NC2C(=O)NC(C(C)C)C(=O)N3CCC3C(=O)N(C)CC(=O)N(C)C(C(C)C)C(=O)OC2C)c(N)c1=O (stereo unspecified) (I: TV[Aze][Sar][NMeV] / II: TVP[Sar][NMeV]; ester I:1-I:C, II:1-II:C; linker I:N-II:N via Actinocin(1to9); configuration not given here)
endpoint: median tumor weight (est.), dose: 14.0 micrograms/kg/injection, schedule: Q02DX011 (ip), vehicle: saline, higher = larger tumour
  T/C: 112 % of control
endpoint: median tumor weight (est.), dose: 23.3 micrograms/kg/injection, schedule: Q02DX011 (ip), vehicle: saline, higher = larger tumour
  T/C: 99 % of control
endpoint: median tumor weight (est.), dose: 38.9 micrograms/kg/injection, schedule: Q02DX011 (ip), vehicle: saline, higher = larger tumour
  T/C: 87 % of control
endpoint: median tumor weight (est.), dose: 64.8 micrograms/kg/injection, schedule: Q02DX011 (ip), vehicle: saline, higher = larger tumour
  T/C: 120 % of control
endpoint: median tumor weight (est.), dose: 108.0 micrograms/kg/injection, schedule: Q02DX011 (ip), vehicle: saline, higher = larger tumour
  T/C: 64 % of control
endpoint: median tumor weight (est.), dose: 180.0 micrograms/kg/injection, schedule: Q02DX011 (ip), vehicle: saline, higher = larger tumour
  T/C: 96 % of control
endpoint: median tumor weight (est.), dose: 300.0 micrograms/kg/injection, schedule: Q02DX011 (ip), vehicle: saline, higher = larger tumour
  T/C: 59 % of control

## CSC1SCC2C(=O)N(C)C(C(C)C)C(=O)OCC(NC(=O)c3cnc4ccccc4n3)C(=O)NC(C)C(=O)N(C)C1C(=O)N(C)C(C(C)C)C(=O)OCC(NC(=O)c1cnc3ccccc3n1)C(=O)NC(C)C(=O)N2C (stereo unspecified)
endpoint: median survival time, dose: 0.06 mg/kg/injection, schedule: Q04DX003 (ip), vehicle: saline with Tween-80, higher = longer survival
  T/C: 96 % of control
endpoint: median survival time, dose: 0.12 mg/kg/injection, schedule: Q04DX003 (ip), vehicle: saline with Tween-80, higher = longer survival
  T/C: 91 % of control

## CC(=O)Nc1ccc(OC(=O)Nc2ccc(C)c(NC(=O)Oc3ccc(NC(C)=O)cc3)c2)cc1
[1]
  T/C: 113 % of control
[2]
  T/C: 95 % of control
[4]
  T/C: 47 % of control
[5]
  T/C: 187 % of control

## COc1cccc2c1C(=O)c1c(O)c3c(c(O)c1C2=O)C[C@@](O)(C(C)=O)C[C@@H]3OC1CC(N)C(O)C(C)O1 (stereo partly specified)
endpoint: median survival time, dose: 0.4 mg/kg/injection, schedule: Q02DX030 (ip), vehicle: saline, higher = longer survival
  T/C: 95 % of control
endpoint: median survival time, dose: 0.4 mg/kg/injection, schedule: Q04DX006 (ip), vehicle: saline, higher = longer survival
  T/C: 106 % of control
endpoint: median survival time, dose: 0.8 mg/kg/injection, schedule: Q02DX030 (ip), vehicle: saline, higher = longer survival
  T/C: 122 % of control
endpoint: median survival time, dose: 1.6 mg/kg/injection, schedule: Q02DX030 (ip), vehicle: saline, higher = longer survival
  T/C: 104 % of control
